pIC50: −log10 of the molar value.
How the values were obtained:
LDL uptake, HepG2 cells [1] = experiment: Fluorescent LDL uptake in HepG2 cells in the presence of PCSK9; assay type: cell-based, human; conditions: 50 µM + PCSK9 4 µg/mL; Figure 3C
Experimental: (§1) HepG2 cells (3 × 10^4/well) were seeded in 96-well plates and kept in complete growth medium for 2 days before treatment. The third day, cells were washed with PBS and then starved overnight (O/N) in DMEM without FBS and antibiotics. After starvation, they were treated with 4.0 μg/mL PCSK9 and 4.0 μg/mL PCSK9 + P5 and P5 analogs peptides (50 µM), and vehicle (H2O) for 2 h with at 37 °C under 5% CO2 atmosphere. Fluorescent LDL-uptake was finally assessed following optimized protocol. See Supplementary Materials for further details.
(§2) PBS for 1.5 h at RT. LDLR primary antibody solution (1:3000 in 5% BSA in PBS, 25 µL/well) was incubated O/N at +4 °C. […] The reaction was stopped with 2 M H2SO4 and then the absorbance at 450 nm was measured using the microplate reader Synergy H1 (Winoo-ski, VT, USA). After the read, cells were stained by adding 1 X Janus Green stain, incubat-ing for 5 min at RT. […]
(§3) Afterward 100 µL 0.5 M HCl for well were added and incubated for 10 min. After 10 sec-onds shaking, the OD at 595 nm was measured using the microplate reader Synergy H1 […]
(§4) Fluorescent LDL Uptake. […] The degree of LDL uptake was measured using the Synergy H1 fluo-rescent plate reader (Winooski, VT, USA) (excitation and emission wavelengths 540 and 570 nm, respectively). Fluorescent LDL-uptake was finally assessed following optimized […]

LDL uptake, HepG2 cells [2] = experiment: Fluorescent LDL uptake in HepG2 cells (peptide alone); assay type: cell-based, human; conditions: 50 µM, vs control, average ± SD, four independent experiments in duplicate
Experimental: as §1, §2, §3, §4

[3] = target: T1, HMG-CoAR (catalytic domain) (Homo sapiens, UniProt P04035); conditions: parent peptide; read-out: IC50, HMG-CoAR activity (P5); cited from earlier work
T1 construct: finally the HMG-CoAR (cata- lytic domain) (2 µL); purchased Sigma-Aldrich
T1 sequence (P04035 426-888 limits assumed): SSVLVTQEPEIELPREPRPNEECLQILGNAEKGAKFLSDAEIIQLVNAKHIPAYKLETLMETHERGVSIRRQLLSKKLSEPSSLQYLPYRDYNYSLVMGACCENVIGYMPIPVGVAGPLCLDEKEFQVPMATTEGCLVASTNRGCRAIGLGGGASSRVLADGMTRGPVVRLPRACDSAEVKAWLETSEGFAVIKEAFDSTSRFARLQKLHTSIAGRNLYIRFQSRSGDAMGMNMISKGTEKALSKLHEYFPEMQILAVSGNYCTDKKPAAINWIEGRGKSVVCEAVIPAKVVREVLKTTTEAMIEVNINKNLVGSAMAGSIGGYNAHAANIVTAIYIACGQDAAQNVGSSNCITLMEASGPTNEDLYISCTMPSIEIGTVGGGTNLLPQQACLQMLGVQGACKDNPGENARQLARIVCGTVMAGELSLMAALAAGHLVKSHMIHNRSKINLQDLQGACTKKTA

PCSK9 = system: PCSK9; set-up: method as in 3 sources, ref 49 = [49]; PMID 35011066; doi:10.3390/nu14010193; 49. Macchi C. Greco M.F. Ferri N. Magni P. Arnoldi A. Corsini A. Sirtori C.R. Ruscica M. Lammi C. Impact of Soy β-Conglycinin Peptides on PCSK9 Protein Expression in HepG2 Cells Nutrients 2021 14 193 ||| ref 22 = [22]; doi:10.1016/j.jff.2017.02.009; 22. Zanoni C. Aiello G. Arnoldi A. Lammi C. Investigations on the hypocholesterolaemic activity of […] and LTFPGSAED, two peptides from lupin β-conglutin: Focus on LDLR and PCSK9 pathways J. Fu ||| ref 24 = [24]; PMID 33808034; doi:10.3390/nu13030863; 24. Lammi C. Aiello G. Bollati C. Li J. Bartolomei M. Ranaldi G. Ferruzza S. Fassi E.M.A. Grazioso G. Sambuy Y. Trans-Epithelial Transport, Metabolism, and Biological Activity Assessment of the Multi-; conditions: through downregulation of HNF-1α; cited from earlier work

**Q.** Which “ability to absorb LDL in presence of PCSK9” value (LDL uptake, HepG2 cells [1]) does the source give for “LILPKHSDAD [Peptide P5, natural peptide derived from a peptic lupin protein hydrolysate]” here?
**A.** improved

**Q.** And the “ability of HepG2 cells to uptake extracellular LDL” value (LDL uptake, HepG2 cells [2])?
**A.** 203.8 ± 40.67%

**Q.** What about the pIC50 [3] of the same sequence?
**A.** 3.83

**Q.** What about the “PCSK9 protein levels and secretion (P5, earlier work, words)” value (PCSK9) of the same sequence?
**A.** reduces the PCSK9 protein levels and its secretion

Source: publication PMC8951016, “Computational Design and Biological Evaluation of Analogs of Lupin Peptide P5 Endowed with Dual PCSK9/HMG-CoAR Inhibiting Activity” (Pharmaceutics, 2022)
